Test results reported in ChEMBL document CHEMBL1201862, “PubChem BioAssay data set” (2004).
Blank lines part the entries; values can stand above or below the molecule they belong to. The source made the active and inactive calls.

Key:
[1] = viability of PTEN-deleted HCT116 cells – cell-based, HCT116 PTEN knockout, dose response (AID 1047); format: functional;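 note: HCT116 colon tumor cells with PTEN knocked out; cells exposed to compound for 60 hours before readout; potency for loss of cell viability measured by luminescence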
[2] = viability of HCT116 lacking mutant beta-catenin – cell-based, human colon tumor, dose response (AID 1045); format: functional;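 note: HCT116 colon tumor cells with beta catenin knocked out; cells exposed to compound for 60 hours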
SUMO-activating enzyme [3] = target: T1, SUMO-activating enzyme (Homo sapiens, UniProt Q9UBT2); test: blockers of SAE1/SAE2–UBC9 SUMO transfer – biochemical, HTRF, uHTS, primary screen (AID 2006); format: protein-complex assay
SUMO-activating enzyme [4] = target: T1, SUMO-activating enzyme; test: blockers of UBC9-mediated SUMO conjugation – biochemical, AlphaScreen, SUMOylation inhibitor project, confirmation (AID 2018); format: functional
INS1 = test: INS-1E survival protection against cytokine death – cell-based, luminescence, retest, dose response (AID 449756); format: functional; conditions: Rattus norvegicus;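 note: cell death triggered by IL-1 beta plus TNF-alpha plus IFN-gamma mixture; protective hits raise ATP signal compared with cytokine alone wells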
[5] = HEK-293T cell viability reduction – luminescence, B-cell screen hits, cytotoxicity control for BCR NF-kB inhibitor project, dose response (AID 489021); format: functional, cell-based;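 note: HEK-293T cells carrying an NF-kB luciferase reporter; cells exposed to compound for about 14 hours before viability readout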
Galanin receptor type 2 = Galanin receptor type 2 (Homo sapiens, UniProt O43603); test: Dose Response cell-based high-throughput screening assay to identify antagonists of galanin receptor 2 (GALR2). [Related pubchem assays: 828, 866 ]; format: functional
Galanin receptor type 3 = target: T2, Galanin receptor type 3 (Homo sapiens, UniProt O60755); test: Fluorescence-based cell-based primary high throughput dose response assay to identify antagonists of the Galanin Receptor 3 (GalR3).; format: functional
T2 sequence (O60755 whole entry): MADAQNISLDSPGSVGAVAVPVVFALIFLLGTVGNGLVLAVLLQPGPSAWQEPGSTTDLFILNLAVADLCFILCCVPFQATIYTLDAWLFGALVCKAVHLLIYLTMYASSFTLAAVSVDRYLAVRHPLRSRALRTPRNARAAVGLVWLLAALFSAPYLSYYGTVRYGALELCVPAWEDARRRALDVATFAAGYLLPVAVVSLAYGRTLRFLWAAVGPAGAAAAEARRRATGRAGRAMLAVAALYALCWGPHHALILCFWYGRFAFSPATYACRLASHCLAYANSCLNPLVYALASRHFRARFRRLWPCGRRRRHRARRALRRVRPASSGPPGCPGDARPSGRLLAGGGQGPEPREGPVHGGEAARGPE

cells = format: functional, cell-based; conditions: HEK-CNG
[6] = target: Neurotensin receptor type 1 (Homo sapiens, UniProt P30989); format: functional;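 note: Image-based confirmatory dose-response assay measuring agonist activity at NTR1; NTR1-expressing U2OS osteosarcoma cells imaged for beta-arrestin GFP spot formation; agonist potency where compounds increase beta-arrestin recruitment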
[7] = target: Female germline-specific tumor suppressor gld-1 (Caenorhabditis elegans, UniProt Q17339); test: blockers of GLD-1/TGE RNA complex formation – biochemical, fluorescence polarization, C. elegans, dose response (AID 2802);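 note: fluorescence polarization of labeled TGE RNA bound by purified gld-1 protein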
[8] = target: T3, Corticotropin-releasing factor receptor 2/Corticotropin-releasing factor-binding protein (Homo sapiens, UniProt P24387+Q13324); test: activators of CRF receptor 2 with binding protein – uHTS hits, confirmation (AID 602473); format: functional; conditions: read-out: EC50_Mean
T3 sequence (Q13324 whole entry): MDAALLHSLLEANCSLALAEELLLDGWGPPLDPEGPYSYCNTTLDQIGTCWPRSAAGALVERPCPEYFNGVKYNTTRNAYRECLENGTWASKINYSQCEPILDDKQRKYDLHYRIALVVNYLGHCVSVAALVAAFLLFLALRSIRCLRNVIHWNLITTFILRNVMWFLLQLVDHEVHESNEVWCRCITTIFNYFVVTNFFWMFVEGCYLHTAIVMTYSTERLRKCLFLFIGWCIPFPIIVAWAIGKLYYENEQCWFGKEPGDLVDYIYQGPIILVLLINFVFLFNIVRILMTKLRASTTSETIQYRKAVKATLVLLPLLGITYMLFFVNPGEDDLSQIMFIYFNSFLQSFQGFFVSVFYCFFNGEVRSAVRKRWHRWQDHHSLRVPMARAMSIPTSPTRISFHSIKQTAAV
T3 sequence (P24387 whole entry): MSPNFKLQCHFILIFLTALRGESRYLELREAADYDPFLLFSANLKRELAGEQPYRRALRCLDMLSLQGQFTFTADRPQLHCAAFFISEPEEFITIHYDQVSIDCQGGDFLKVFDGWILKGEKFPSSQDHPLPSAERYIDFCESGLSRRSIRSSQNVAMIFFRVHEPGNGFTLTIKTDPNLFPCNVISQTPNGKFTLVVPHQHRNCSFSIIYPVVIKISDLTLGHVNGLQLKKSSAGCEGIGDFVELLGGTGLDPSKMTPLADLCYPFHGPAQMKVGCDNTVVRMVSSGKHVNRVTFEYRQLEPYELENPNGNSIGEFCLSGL

[9] = target: Intestinal-type alkaline phosphatase (Homo sapiens, UniProt P09923); test: Dose Response confirmation of uHTS hits from a small molecule inhibitors of human intestinal alkaline phosphatase via a luminescent assay. [Related pubchem assays (depositor defined):AID2544, AID2574]; format: functional
Protein Rev = Protein Rev (Human immunodeficiency virus type 1 group M subtype B (isolate HXB2)(HIV-1), UniProt P04618); test: blockers of HIV Rev/RRE RNA complex – biochemical, fluorescence polarization, HIV-1, dose response (AID 434976); parameters: species or system Human immunodeficiency virus 1
Genome polyprotein = Genome polyprotein (dengue virus type 2, UniProt P29990); test: flavivirus cap methylation enzyme inhibition – biochemical, confirmation dose response, primary screen (AID 588689); format: functional
[10] = target: Protein phosphatase methylesterase 1 (Homo sapiens, UniProt Q9Y570); test: endogenous PME-1 and serine hydrolase inhibition – cell lysate, mouse brain cytosol, FP-rhodamine, gel ABPP, selectivity assay for PME-1 inhibitor project, dose response, panel member PME-1 Assay Panel member description: Inhibition of endogenously expressed PME-1 (AID 2366)
Protein phosphatase methylesterase 1, sequence (Q9Y570 whole entry): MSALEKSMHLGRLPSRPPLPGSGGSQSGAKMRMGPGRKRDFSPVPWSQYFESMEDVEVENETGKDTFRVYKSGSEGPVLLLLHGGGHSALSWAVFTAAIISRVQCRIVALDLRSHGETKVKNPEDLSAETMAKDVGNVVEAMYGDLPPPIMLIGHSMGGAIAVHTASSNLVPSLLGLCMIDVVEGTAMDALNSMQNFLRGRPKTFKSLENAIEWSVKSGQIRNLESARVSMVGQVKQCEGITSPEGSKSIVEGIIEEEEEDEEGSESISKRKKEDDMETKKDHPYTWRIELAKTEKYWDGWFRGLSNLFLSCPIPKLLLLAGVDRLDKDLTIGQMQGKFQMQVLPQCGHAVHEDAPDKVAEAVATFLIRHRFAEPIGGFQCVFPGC

T1 sequence (Q9UBE0 whole entry): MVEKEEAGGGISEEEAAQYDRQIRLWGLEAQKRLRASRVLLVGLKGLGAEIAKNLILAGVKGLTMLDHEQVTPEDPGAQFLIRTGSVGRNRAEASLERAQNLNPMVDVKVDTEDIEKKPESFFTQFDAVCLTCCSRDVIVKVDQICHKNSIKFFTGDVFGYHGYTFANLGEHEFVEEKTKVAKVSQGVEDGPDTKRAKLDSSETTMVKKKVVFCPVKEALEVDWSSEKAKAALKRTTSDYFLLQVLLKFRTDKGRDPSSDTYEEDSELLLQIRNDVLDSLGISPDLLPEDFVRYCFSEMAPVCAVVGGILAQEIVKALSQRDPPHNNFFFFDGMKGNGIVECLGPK
T1 sequence (Q9UBT2 whole entry): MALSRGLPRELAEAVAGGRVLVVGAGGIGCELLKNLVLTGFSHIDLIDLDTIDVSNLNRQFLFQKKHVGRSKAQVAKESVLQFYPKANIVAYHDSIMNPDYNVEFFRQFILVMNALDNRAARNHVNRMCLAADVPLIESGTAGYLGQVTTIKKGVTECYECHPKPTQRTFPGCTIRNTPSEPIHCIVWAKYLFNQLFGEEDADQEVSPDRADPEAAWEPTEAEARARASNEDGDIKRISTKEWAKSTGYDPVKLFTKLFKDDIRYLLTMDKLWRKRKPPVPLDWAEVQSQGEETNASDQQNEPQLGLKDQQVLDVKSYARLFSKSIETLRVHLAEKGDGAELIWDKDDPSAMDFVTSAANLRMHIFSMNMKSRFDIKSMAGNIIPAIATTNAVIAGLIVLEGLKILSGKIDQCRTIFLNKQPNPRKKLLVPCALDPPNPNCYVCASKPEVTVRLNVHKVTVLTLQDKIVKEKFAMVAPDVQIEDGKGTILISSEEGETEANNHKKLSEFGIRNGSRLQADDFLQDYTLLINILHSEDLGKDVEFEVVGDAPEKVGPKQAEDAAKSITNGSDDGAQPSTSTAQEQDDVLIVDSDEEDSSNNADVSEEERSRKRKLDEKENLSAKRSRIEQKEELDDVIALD
Protein Rev, sequence (P04618 whole entry): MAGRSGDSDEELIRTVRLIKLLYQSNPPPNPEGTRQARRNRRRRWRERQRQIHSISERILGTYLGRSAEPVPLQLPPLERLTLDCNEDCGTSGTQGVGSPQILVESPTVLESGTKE
Galanin receptor type 2, sequence (O43603 whole entry): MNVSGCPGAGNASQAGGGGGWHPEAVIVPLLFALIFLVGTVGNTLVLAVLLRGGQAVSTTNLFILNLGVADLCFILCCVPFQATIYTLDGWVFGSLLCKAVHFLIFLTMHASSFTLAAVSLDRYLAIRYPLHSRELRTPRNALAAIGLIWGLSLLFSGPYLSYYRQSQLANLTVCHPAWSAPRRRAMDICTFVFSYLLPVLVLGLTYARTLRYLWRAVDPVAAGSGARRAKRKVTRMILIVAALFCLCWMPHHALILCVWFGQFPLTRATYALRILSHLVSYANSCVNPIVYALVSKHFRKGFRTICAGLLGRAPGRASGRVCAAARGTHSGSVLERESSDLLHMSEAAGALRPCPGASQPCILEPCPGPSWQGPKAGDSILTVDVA
Neurotensin receptor type 1, sequence (P30989 whole entry): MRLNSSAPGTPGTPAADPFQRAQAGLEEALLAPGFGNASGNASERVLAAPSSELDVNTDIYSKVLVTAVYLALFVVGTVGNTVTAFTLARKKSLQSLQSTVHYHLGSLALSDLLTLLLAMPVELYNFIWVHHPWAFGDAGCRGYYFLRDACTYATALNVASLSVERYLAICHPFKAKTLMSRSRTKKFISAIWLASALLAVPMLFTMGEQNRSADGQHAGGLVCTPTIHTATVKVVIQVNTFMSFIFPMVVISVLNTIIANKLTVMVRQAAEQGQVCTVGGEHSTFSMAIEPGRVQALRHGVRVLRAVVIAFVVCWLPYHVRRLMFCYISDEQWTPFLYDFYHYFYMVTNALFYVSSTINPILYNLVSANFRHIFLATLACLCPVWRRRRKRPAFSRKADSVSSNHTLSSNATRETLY
Genome polyprotein, sequence (P29990 2492-3391 limits assumed): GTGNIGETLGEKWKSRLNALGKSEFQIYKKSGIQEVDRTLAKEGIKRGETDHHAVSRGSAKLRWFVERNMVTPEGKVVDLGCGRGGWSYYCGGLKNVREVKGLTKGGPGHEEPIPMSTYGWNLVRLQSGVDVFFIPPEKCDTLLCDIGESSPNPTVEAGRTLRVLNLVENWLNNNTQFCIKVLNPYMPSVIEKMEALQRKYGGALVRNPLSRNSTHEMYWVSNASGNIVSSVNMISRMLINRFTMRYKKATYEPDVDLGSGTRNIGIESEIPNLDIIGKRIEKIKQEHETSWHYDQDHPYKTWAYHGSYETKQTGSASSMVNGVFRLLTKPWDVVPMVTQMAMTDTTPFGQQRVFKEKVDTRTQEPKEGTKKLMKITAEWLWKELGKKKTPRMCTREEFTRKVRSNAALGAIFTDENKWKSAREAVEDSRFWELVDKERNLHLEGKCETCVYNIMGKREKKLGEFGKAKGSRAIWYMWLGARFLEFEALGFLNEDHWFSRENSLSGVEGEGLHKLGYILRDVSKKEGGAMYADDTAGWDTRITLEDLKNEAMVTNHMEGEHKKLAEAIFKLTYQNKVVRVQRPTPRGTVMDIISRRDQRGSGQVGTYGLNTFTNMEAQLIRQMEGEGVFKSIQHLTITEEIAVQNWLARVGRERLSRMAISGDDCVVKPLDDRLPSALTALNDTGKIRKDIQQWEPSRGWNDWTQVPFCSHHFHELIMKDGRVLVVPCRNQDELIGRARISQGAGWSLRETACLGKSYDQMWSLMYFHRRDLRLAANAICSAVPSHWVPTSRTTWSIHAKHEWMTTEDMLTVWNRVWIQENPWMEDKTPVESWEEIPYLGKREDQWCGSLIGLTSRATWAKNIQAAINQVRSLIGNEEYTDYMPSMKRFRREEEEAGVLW
Intestinal-type alkaline phosphatase, sequence (P09923 whole entry): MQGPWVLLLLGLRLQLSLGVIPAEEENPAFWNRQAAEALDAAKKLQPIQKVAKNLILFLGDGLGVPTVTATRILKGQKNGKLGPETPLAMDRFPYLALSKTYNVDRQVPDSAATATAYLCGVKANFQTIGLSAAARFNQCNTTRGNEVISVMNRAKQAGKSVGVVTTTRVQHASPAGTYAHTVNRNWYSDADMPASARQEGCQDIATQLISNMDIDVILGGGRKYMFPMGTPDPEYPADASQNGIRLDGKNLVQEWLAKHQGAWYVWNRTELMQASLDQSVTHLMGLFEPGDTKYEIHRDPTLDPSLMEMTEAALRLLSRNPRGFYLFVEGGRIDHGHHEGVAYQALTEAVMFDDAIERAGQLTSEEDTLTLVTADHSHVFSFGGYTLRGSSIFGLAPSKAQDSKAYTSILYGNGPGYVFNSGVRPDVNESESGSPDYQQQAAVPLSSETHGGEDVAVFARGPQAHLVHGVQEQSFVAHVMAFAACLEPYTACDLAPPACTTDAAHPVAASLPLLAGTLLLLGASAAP
Female germline-specific tumor suppressor gld-1, sequence (Q17339 whole entry): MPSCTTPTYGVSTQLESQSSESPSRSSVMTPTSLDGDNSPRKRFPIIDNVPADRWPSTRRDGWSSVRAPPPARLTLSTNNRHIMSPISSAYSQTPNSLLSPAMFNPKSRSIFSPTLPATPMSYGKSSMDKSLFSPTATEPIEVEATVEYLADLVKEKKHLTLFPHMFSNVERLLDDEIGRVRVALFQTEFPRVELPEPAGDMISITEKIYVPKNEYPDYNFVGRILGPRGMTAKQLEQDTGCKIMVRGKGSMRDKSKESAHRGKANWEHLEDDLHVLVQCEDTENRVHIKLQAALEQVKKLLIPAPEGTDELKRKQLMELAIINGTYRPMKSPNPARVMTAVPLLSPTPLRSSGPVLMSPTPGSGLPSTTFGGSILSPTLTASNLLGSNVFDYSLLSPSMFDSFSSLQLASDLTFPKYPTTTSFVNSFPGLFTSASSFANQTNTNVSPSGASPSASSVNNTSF

Structure (SMILES): O=C(/C=C/c1ccco1)NC(=S)Nc1cc(-c2nc3ccccc3s2)ccc1Cl
- EC50 [1]: 7.86 µM (active)
- EC50 [2]: 7.24 µM (active)
- IC50 (SUMO-activating enzyme [3]): 26 µM (active)
- IC50 (SUMO-activating enzyme [4]): 7.42 µM (active)

Structure (SMILES): O=S(=O)(NCc1ccncc1)c1ccc(Br)s1
- AC50 (INS1): 2.91 µM (active)
- IC50 [5]: > 80 µM (inactive)
- IC50 (Galanin receptor type 2): > 42 µM (not active)
- IC50 (Galanin receptor type 3): 2.06 µM (active)
- EC50 (cells): > 29.9 µM (inactive)

- EC50 [6]: 12 µM (active)
Structure (SMILES): O=C(/C=C\c1ccccc1OC(=O)c1ccccc1F)c1cc2ccccc2o1

Structure (SMILES): COc1ccc2nc(N3CCC(O)CC3)c(C#N)cc2c1
- IC50 [7]: 24.9 µM (inactive)
- EC50 [8]: > 53 µM (inactive)
- IC50 [9]: > 100 µM (inactive)
- IC50 (Protein Rev): 67.6 µM (not active)
- IC50 (Genome polyprotein): 59.2 µM (active)

- IC50 [10]: > 20 µM (inactive)
Structure (SMILES): Cc1noc(C)c1S(=O)(=O)n1cccc1/C=C(\C#N)S(C)(=O)=O
